Tests used:
[1] = tested on: rhizavidin; assay: affinity column purification of rhizavidin with immobilized ligand; design: species or system Rhizobium etli; details: data not shown
Protocol: The following steps can be followed to prepare a LA-matrix for use in the methods as disclosed herein: • i. Resuspend CARBOXYLINK™ Coupling Resin (Life technologies, 20266) and aliquot 1 ml of suspended resin into an empty column, e.g., a bio-rad Econo-Pac Chromatography Column, allow resin to settle. Wash the resin with approx.20 ml of water and add 10 ml of PBS (×1) to equilibrate resin. • ii. Prepare a 100 mg/ml solution of Sulfo-NHS by dissolving 50 mg of Sulfo-NHS (N-hydroxysulfosuccinimide) in 0.5 ml of 0.1M MES buffer. • iii. Prepare a Sulfo-NHS/LA mixture by adding 0.25 ml of ethanol and 0.25 ml of 50 mg/ml LA stock solution (12.5 mg of LA) to 0.5 ml of Sulfo-NHS (100 mg/ml). • iv. To cross link the LA to the resin, dissolve 25 mg of EDC in 0.75 ml of coupling buffer and immediately add to Sulfo-NHS/LA mixture. Incubate the EDC/Sulfo-NHS/LA mixture with rotation for 30 min RT. Adjust the pH of the EDC/Sulfo-NHS/LA mixture to pH 7.0 by adding 1M Na2HPO4 (pH11) (approx. 0.5 ml of 1M Na2HPO4) • v. Resuspend the equilibrated CARBOXYLINK™ Coupling Resin with EDC/Sulfo-NHS/LA mixture and transfer everything to a 5 ml tube, incubate with rotation overnight RT. • vi. Transfer resin into an empty column, allow LA resin/LA matrix to settle. Wash resin with the following reagents in the following order; (i) 20 ml of wash buffer, (ii) 20 ml of H2O, (iii) Wash resin comprising 5 ml of 20% ethanol. Store LA resin/LA matrix in 20% ethanol until use.
The following steps can be followed in the methods as disclosed herein to purify a biotin-binding protein, e.g., rhizavidin or a rhiavidin fusion protein using a LA-matrix from a bacterial suspension expressing the rhizavidin or a rhiavidin fusion protein: • v. Collect E. coli culture by centrifugation, discard supernatant, and resuspend pelleted cells with a lysis buffer (20 mM Tris, 1M NaCl, pH8.0) containing DNase, proteinase inhibitors and 10 mM MgCl2. […] Transfer resin into an empty column after incubation and wash the LA resin with wash buffer (50% ethanol, 20 mM Tris, 1M NaCl) until no protein is detected in flow through • ix. […]

[2] = tested on: rhizavidin; assay: binding of rhizavidin to ligands assessed for affinity chromatography; design: species or system Rhizobium etli; details: for binding to rhizavidin: ligand assessed for affinity chromatography
[3] = target: streptavidin (Streptomyces avidinii, UniProt P22629); details: cited from earlier work

| affinity of binding to rhizavidin [2] | affinity of rhizavidin for lipoic acid compared with polyhistadine tag for nickel [2] | SMILES | effectiveness of column comprising the ligand at purifying rhizavidin [1] | binding to rhizavidin [2] | binding to streptavidin [3] |
| --- | --- | --- | --- | --- | --- |
| – | – | Cc1cc(N=Nc2ccccc2C(=O)O)cc(C)c1O [dimethyl-HABA] | not effective | did not bind | bind with high affinity |
| micromolar affinity | approximately the same as histadine | O=C(O)CCCCC1CCSS1 (stereo not drawn) [lipoic acid, 1,2-dithione-3-pentanoic acid] | effective | – | – |
| – | – | O=C(O)c1ccccc1N=Nc1ccc(O)cc1 [HABA, hydrooxyazobenzene-benzoic acid] | not effective | did not bind | bind with high affinity |

Source: patent publication US20190119332A1, “METHODS TO PURIFY AVIDIN-LIKE PROTEINS AND FUSION PROTEINS THEREOF” (THE CHILDREN'S MEDICAL CENTER CORPORATION, priority 2016, published 2019)
